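Interpolation was linear, between the two tested concentrations surrounding the appropriate level; five concentrations were tested over 48 hours in 96-well plates. The concentration for 50% growth inhibition is given as GI50.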 Activity calls are given as the source filed them. Rule as the data show it: active = GI50 up to about 1.1 µM and inactive = higher.
Assays:
Test in all cases: inhibition of tumour cell growth, NCI panel, 48 h
[1] = test system: SNB-75
[2] = test system: ACHN
[3] = test system: SNB-19
[4] = test system: PC-3
[5] = test system: OVCAR-4
[6] = test system: TK-10
[7] = test system: UO-31
[8] = test system: SF-295
[9] = test system: OVCAR-8
[10] = test system: SK-MEL-28
[11] = test system: K562
[12] = test system: NCI/ADR-RES
[13] = test system: NCI-H522
[14] = test system: SK-OV-3
[15] = test system: UACC-257
[16] = test system: SK-MEL-2
[17] = test system: NCI-H23
[18] = test system: OVCAR-3
[19] = test system: UACC-62
[20] = test system: HOP-92

Measured: GI50

COc1ccc(C(=CCC(C)C2CCC3[C@@H]4C(OC(C)=O)CC5CC(OC(C)=O)CC[C@]5(C)C4CC(OC(C)=O)[C@]23C)c2ccc(OC)cc2)cc1 (some centres undefined)
inactive: [1] 34.8 µM | [2] 37.3 µM | [3] > 100 µM | [4] 19.5 µM | [5] 19.1 µM | [6] > 100 µM | [7] 47.4 µM | [8] > 100 µM | [9] > 100 µM | [10] 83.8 µM | [11] 67.8 µM | [12] 80.7 µM | [13] 23.8 µM | [14] > 100 µM | [15] 99.5 µM

Cc1cc(=O)n(-c2ccccc2C)c(C)n1
inactive: [1] > 100 µM | [2] > 100 µM | [16] > 100 µM | [3] > 100 µM | [17] > 100 µM | [5] > 100 µM | [6] > 100 µM | [7] > 100 µM | [8] > 100 µM | [9] > 100 µM | [18] > 100 µM | [10] > 100 µM | [19] > 100 µM | [11] > 100 µM | [20] > 100 µM | [13] > 100 µM | [14] > 100 µM | [15] > 100 µM

COc1cc(CNc2nc3cc(C(F)(F)F)ccc3nc2C)cc(OC)c1OC
inactive: [1] 19.4 µM | [2] 13.6 µM | [3] 35.1 µM | [17] 18.9 µM | [6] 15.7 µM | [7] 17.7 µM | [8] 19.1 µM | [9] 23.7 µM | [18] 25.2 µM | [10] 20.4 µM | [19] 7.96 µM | [11] 23 µM | [12] > 10 µM | [13] 18.3 µM | [15] 16.6 µM

O=C(N/C(=C\c1cc(Cl)ccc1Cl)c1nc2cc(Cl)ccc2[nH]1)c1ccccc1
inactive: [1] 19.1 µM | [2] 22.5 µM | [16] 13.7 µM | [3] 22.4 µM | [17] 13 µM | [5] 25.8 µM | [6] 3.78 µM | [7] 11.7 µM | [8] 16.1 µM | [9] 16.1 µM | [18] 15.2 µM | [10] 17.4 µM | [19] 11.4 µM | [11] 15.5 µM | [20] 11.6 µM | [13] 12.4 µM | [14] 21.5 µM | [15] 15 µM

COC(=O)c1ccc(CN2CCc3c([nH]c4ccccc34)C2CO)o1 (centres undefined)
inactive: [1] > 10 µM | [17] > 10 µM | [4] > 10 µM | [5] > 10 µM | [6] > 10 µM | [8] > 10 µM | [9] > 10 µM | [18] > 10 µM | [10] > 10 µM | [19] > 10 µM | [11] > 10 µM | [20] > 10 µM | [13] > 10 µM | [14] > 10 µM | [15] > 10 µM

O=C(c1nc2ccc(Cl)cc2[nH]c1=O)C(O)c1cccc([N+](=O)[O-])c1 (centres undefined)
inactive: [1] > 100 µM | [2] 64.3 µM | [16] > 100 µM | [3] > 100 µM | [17] > 100 µM | [5] > 100 µM | [6] > 100 µM | [7] 80.9 µM | [8] > 100 µM | [9] > 100 µM | [18] > 100 µM | [10] 26.7 µM | [19] 67.6 µM | [11] 28.6 µM | [20] > 100 µM | [13] 16.2 µM | [14] > 100 µM | [15] > 100 µM

N#CC1CCCCCCCCCCC(=O)N(CCCl)C1=O (centres undefined)
inactive: [1] > 100 µM | [2] > 100 µM | [16] > 100 µM | [3] > 100 µM | [17] > 100 µM | [5] > 100 µM | [6] > 100 µM | [7] > 100 µM | [8] > 100 µM | [9] > 100 µM | [18] > 100 µM | [10] > 100 µM | [19] > 100 µM | [11] > 100 µM | [20] > 100 µM | [13] > 100 µM | [14] > 100 µM | [15] > 100 µM

Cn1cnc([N+](=O)[O-])c1Sc1nnc(C(F)(F)F)n1C
inactive: [1] 84.1 µM | [2] 23.6 µM | [16] 21.9 µM | [3] > 100 µM | [17] 37.5 µM | [5] 24.3 µM | [6] 26.4 µM | [7] 26.5 µM | [8] > 100 µM | [9] 24.9 µM | [18] 22 µM | [10] 18.7 µM | [19] 18 µM | [11] 23.4 µM | [20] 16 µM | [13] 10.4 µM | [14] > 100 µM | [15] 17.3 µM

CCOC(=O)c1c(N)sc2c1C(C(=O)OCC)CCC2 (centres undefined)
inactive: [1] > 100 µM | [2] > 100 µM | [16] > 100 µM | [3] > 100 µM | [17] > 100 µM | [4] 68.1 µM | [6] > 100 µM | [7] 47.4 µM | [9] > 100 µM | [10] > 100 µM | [19] > 100 µM | [11] 76.6 µM | [20] > 100 µM | [15] > 100 µM
